Read-outs that look alike come from different tables or passages of the source.
Tests used:
[1] = Pharmacokinetic evaluation in rats (liver-blood ratio); assay type: in vivo, CD rats
Experimental: To determine the pharmacokinetic parameters of the compound represented by formula (I) in rats.
The animals were given the compound at a dose of 5 mg/kg at a concentration of 0.5 mg/mL. Animals were cross-collected for plasma samples at 2, 6 and 10 h after administration. The drug concentration in the plasma samples was determined by LC-MS/MS method, and the kinetic parameters of the test drugs obtained were found in Table 25: […]

[2] = target: thyroid hormone receptor β (THR β) (Homo sapiens, UniProt P10828); experiment: In vitro enzyme activity test of thyroid receptor β (TR-FRET, binding of THRβ LBD with co-activating peptide SRC2-2); assay type: biochemical
Experimental: Time-resolved fluorescence resonance energy transfer (TR-FRET) experimental method was used to evaluate the agonist activity in vitro of the compounds to be tested through the binding of thyroid hormone receptor β (THR β) with its co-activating peptide SRC2-2.
GST tag was fused to THR β ligand binding domain (THR β LBD), and its co-activating peptide SRC2-2 was biotinylated. The binding capacity of THR β LBD to SRC2-2 was determined by detecting the tightly bound Europium-labeled anti-GST antibody and Streptavidin labeled with D2 with TR-FRET.
1) the compounds to be tested were dissolved in DMSO to prepare a 30 mM stock solution that could be stored in a dryer at room temperature for three months. If it is stored for a long time, it will be placed in a refrigerator at −20° C.
The activity rate is calculated as follows: […]
Ratio valuepositive control: average value of the ratios of all positive control holes in the whole plate.
Ratio valuenegative control: average value of the ratios of all negative control holes in the whole plate.
The EC50 (half excited concentration) of the compound was obtained by using the following nonlinear fitting formula.
X: log value of compound concentration; Y: activity rate of compound.

[3] = target: T1, thyroid receptor β (THRβ) (Homo sapiens, UniProt P10828); experiment: Cytological activity test of thyroid receptor β (luciferase reporter gene in HEK293T cells); assay type: cell-based; settings: read-out: EC50 of THR β in vitro cell activity
T1 construct: expressed in transfected cells; host or cells: HEK293T
T1 sequence (P10828 217-461 limits assumed): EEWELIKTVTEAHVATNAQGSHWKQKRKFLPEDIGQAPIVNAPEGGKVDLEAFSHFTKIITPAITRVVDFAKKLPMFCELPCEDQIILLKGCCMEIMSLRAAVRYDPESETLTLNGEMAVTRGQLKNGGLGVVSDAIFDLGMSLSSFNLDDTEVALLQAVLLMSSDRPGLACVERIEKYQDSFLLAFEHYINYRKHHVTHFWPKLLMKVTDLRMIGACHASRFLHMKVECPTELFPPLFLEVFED
Description: In this study, the fluorescence reporter gene experiment method was used to evaluate the excitatory effects of the two compounds to be tested on THR β target.
PGL4.35 [luc2P/9XGAL4UAS/Hygro] contains nine GALA-UAS repeat sequences (upstream activation sequences). This sequence drives the transcription of luciferase reporter gene luc2P, in response to the binding of the fusion protein containing Gal4 DNA binding domain with the ligand binding domain of thyroid receptor β (THR β) in pBIND THRβ vector. Stimulation on THRβ by the test sample will lead to the increase of luminescence signal.
The positive compound was dissolved in DMSO to prepare a 5 mM stock solution, and then diluted to a 0.5 mM stock solution. All compounds were dissolved in DMSO and stored in a refrigerator at −20° C. […]
2) HEK293T cells were cultured according to ATCC standard, and the cells were tested in exponential growth period. […] The cells were collected and counted. […]
5) The Britelite plus detection reagent was placed at room temperature. […] Envision was used to detect the luminescence value.
6) Agonism percentage is calculated as follows:
[formula] • RLU: Resulting Luminescence • RLUpositive control: average value of luminescence of all positive control holes in the whole plate. • RLUnegative control: average value of luminescence of all negative control holes in the whole plate. […]

[4] = Solid stability test of crystalline form A; assay type: physicochemical; settings: open, 10 days
Description: […] Samples in duplicate were placed under each condition, and the samples for XRPD detection and melting points were placed separately. Samples placed under different conditions were sampled for XRPD detection at the planned test end point, and the test results were compared with the initial test results at Day 0.

[5] = Hygroscopicity of crystalline form A by dynamic vapor sorption (DVS); assay type: physicochemical; settings: 25° C. and 80% RH
Experimental: Instrument model: TA Instruments Q5000 SA dynamic moisture adsorption instrument.
Test conditions: 1 mg to 10 mg sample was weighed and placed in a DVS sample tray for testing.
The detailed DVS parameters were as follows: temperature: 25° C., balance: dm/dt=0.01%/min for 15.00 min, drying: 90 min at 0% RH, RH (%) test gradient: 10% RH (%), test gradient range: 0%-80%-0%.
The hygroscopicity evaluation is classified as follows:
Experimental material: TA Instruments Q5000 SA dynamic moisture adsorption instrument
Experimental method: 1 mg to 10 mg of sample was weighted and placed in a DVS sample tray for testing.

Chain of thyroid hormone receptor β (THR β) (P19793 whole entry partner, other chains not shown, the tested form may be a part): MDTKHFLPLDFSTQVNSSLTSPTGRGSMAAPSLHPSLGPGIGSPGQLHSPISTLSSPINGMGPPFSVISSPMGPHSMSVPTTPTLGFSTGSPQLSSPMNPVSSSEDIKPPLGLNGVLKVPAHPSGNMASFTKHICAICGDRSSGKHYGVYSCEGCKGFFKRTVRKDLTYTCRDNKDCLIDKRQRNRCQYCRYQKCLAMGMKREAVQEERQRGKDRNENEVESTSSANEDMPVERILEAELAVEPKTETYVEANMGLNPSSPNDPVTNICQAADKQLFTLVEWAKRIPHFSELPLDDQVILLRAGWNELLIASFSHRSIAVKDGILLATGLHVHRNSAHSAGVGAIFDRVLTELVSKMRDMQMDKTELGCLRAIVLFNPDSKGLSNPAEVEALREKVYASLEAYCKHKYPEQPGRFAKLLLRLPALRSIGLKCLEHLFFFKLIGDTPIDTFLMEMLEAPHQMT

For `C[C@@H]1CCc2c(Oc3c(Cl)cc(-n4nc(C#N)c(=O)[nH]c4=O)cc3Cl)ccc(=O)n21` [Compound represented by formula (I)], the Kp at 2 h ([1]; male, CD, liver/plasma, rat, PO, 5.0 mg/kg, 2 h, read-out: L/P concentration ratio) was 7.7, the Kp at 6 h ([1]; male, CD, liver/plasma, rat, PO, 5.0 mg/kg, 6 h, read-out: L/P concentration ratio) was 22.1 and the Kp at 10 h ([1]; male, CD, liver/plasma, rat, PO, 5.0 mg/kg, 10 h, read-out: L/P concentration ratio) was 23.6. It also gave a concentration at 2 h ([1]; male, CD, liver, rat, PO, 5.0 mg/kg, 2 h, read-out: Liver drug concentration L) of 1180 ng/g, a concentration at 6 h ([1]; male, CD, liver, rat, PO, 5.0 mg/kg, 6 h, read-out: Liver drug concentration L) of 746 ng/g and a concentration at 10 h ([1]; male, CD, liver, rat, PO, 5.0 mg/kg, 10 h, read-out: Liver drug concentration L) of 238 ng/g. For the same compound, the concentration at 2 h ([1]; male, CD, plasma, rat, PO, 5.0 mg/kg, 2 h, read-out: Blood drug concentration P) was 153 ng/mL, the concentration at 6 h ([1]; male, CD, plasma, rat, PO, 5.0 mg/kg, 6 h, read-out: Blood drug concentration P) was 33.8 ng/mL and the concentration at 10 h ([1]; male, CD, plasma, rat, PO, 5.0 mg/kg, 10 h, read-out: Blood drug concentration P) was 10.1 ng/mL. The half-life ([1]; male, CD, plasma, rat, PO, 5.0 mg/kg, read-out: T½ (converted)) was 3.7 h, the “liver targeting (conclusion)” value ([1]; rat, PO, 5.0 mg/kg) was “Conclusion: The blood drug concentration of the compound represented by formula (I) in rats was relatively low, and the liver drug concentration was relatively high, so the compound represented by formula (I) has good liver targeting” and the blood drug concentration ([1]; rats) was “low”. The liver drug concentration ([1]; rats) was “relatively high”, the liver targeting ([1]; rats) was “good liver targeting properties” and the EC50 [2] was 46 nM. The EC50 [3] was 214 nM.
With `C[C@@H]1CCc2c(Oc3c(Cl)cc(-n4nc(C#N)c(=O)[nH]c4=O)cc3Cl)ccc(=O)n21` [crystalline form A] the “Crystalline form (XRPD) after storage” value ([4]; 25° C./65% RH) was “Crystalline form A”, the “Crystalline form (XRPD) after storage” value ([4]; 25° C./85% RH) was “Crystalline form A” and the “Crystalline form (XRPD) after storage” value ([4]; 40° C./75% RH) was “Crystalline form A”. The “Crystalline form (XRPD) after storage” value ([4]; 50° C.) was “Crystalline form A”, the hygroscopicity classification [5] was “slight hygroscopicity” and the “hygroscopic weight gain ΔW” value ([5]; DVS) was 0.6%.

— patent US20250353845A1, “THYROID HORMONE BETA RECEPTOR AGONIST, CRYSTAL FORM, PREPARATION METHOD AND USE” (KPC PHARMACEUTICALS, INC, priority 2022, published 2025)
